The results in this text go back to patent US20140275063A1, “NEW ENZYME INHIBITOR COMPOUNDS” (PROXIMAGEN LIMITED, priority 2011, published 2014).

Counter-ions that a name gives are not always drawn.

The assay concerns the target T1, human SSAO (Homo sapiens, UniProt Q16853).
T1 construct: made in house
T1 sequence (Q16853 29-763 limits assumed): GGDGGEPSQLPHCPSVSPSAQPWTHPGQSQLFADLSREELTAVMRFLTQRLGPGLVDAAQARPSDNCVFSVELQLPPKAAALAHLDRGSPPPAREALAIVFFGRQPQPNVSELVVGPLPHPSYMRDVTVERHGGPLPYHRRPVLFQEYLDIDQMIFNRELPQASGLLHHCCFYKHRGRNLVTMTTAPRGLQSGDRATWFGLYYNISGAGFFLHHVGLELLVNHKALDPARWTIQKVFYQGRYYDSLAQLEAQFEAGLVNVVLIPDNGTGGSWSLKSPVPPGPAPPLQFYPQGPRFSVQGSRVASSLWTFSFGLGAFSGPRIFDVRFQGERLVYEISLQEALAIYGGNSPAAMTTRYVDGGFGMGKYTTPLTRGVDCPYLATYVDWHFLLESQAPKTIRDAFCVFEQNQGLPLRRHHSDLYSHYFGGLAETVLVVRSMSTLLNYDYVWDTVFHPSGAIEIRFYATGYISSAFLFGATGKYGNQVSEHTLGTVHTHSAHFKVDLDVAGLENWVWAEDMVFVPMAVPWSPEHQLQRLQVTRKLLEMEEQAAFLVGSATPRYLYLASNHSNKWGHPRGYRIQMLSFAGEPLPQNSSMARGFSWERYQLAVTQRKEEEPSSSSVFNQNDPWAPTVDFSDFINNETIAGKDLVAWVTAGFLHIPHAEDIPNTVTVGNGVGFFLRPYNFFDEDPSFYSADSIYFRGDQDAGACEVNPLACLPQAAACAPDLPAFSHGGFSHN
The experiment in a line: SSAO inhibitory activity (HRP-coupled hydrogen peroxide detection or 14C-benzaldehyde detection, benzylamine substrate). Format: biochemical. As to conditions: purified recombinantly expressed human SSAO, benzylamine as substrate, RT. As to the method: All primary assays were performed at RT. with purified recombinantly expressed human SSAO. Enzyme was prepared essentially as described in Öhman et al. (Protein Expression and Purification 46 (2006) 321-331). In addition, secondary- and selectivity assays were performed using SSAO prepared from various tissues or purified rat recombinant SSAO. The enzyme activity was assayed with benzylamine as substrate by measuring either benzaldehyde production, using ^14C-labeled substrate, or by utilizing the production of hydrogen peroxide in a horseradish peroxidase (HRP) coupled reaction. Briefly, test compounds were dissolved in dimethyl sulfoxide (DMSO) to a concentration of 10 mM. Dose-response measurements were assayed by either creating 1:10 serial dilutions in DMSO to produce a 7 point curve or by making 1:3 serial dilutions in DMSO to produce 11 point curves. The top concentrations were adjusted depending on the potency of the compounds and subsequent dilution in reaction buffer yielded a final DMSO concentration ≦2%.
In a horseradish peroxidase (HRP) coupled reaction, hydrogen peroxide oxidation of 10-acetyl-3,7-dihydroxyphenoxazine produced resorufin, which is a highly fluorescent compound (Zhout and Panchuk-Voloshina. Analytical Biochemistry 253 (1997) 169-174; Amplex® Red Hydrogen Peroxideperoxidase Assay kit, Invitrogen A22188). Enzyme and compounds in 50 mM sodium phosphate, pH 7.4 were set to pre-incubate in flat-bottomed microtiter plates for approximately 15 minutes before initiating the reaction by addition of a mixture of HRP, benzylamine and Amplex reagent. Benzylamine concentration was fixed at a concentration corresponding to the Michaelis constant, determined using standard procedures. Fluorescence intensity was then measured at several time points during 1-2 hours, exciting at 544 nm and reading the emission at 590 nm. For the human SSAO assay final concentrations of the reagents in the assay wells were: SSAO enzyme 1 μg/ml, benzylamine 100 μM, Amplex reagent 20 μM, HRP 0.1 U/mL and varying concentrations of test compound. The inhibition was measured as % decrease of the signal compared to a control without inhibitor (only diluted DMSO). The background signal from a sample containing no SSAO enzyme was subtracted from all data points. Data was fitted to a four parameter logistic model and IC50 values were calculated using the Graph Pad Prism 4 or XLfit 4 programs.
SSAO activity was assayed using 14C-labeled benzylamine and analysed by measuring radioactive benzaldehyde. In a white 96-well optiplate (Packard), 20 μL of diluted test compound was pre-incubated at RT. with 20 μL SSAO enzyme for approximately 15 minutes with continuous agitation. All dilutions were made with PBS. The reaction was initiated by adding 20 μL of the benzylamine substrate solution containing [7-14C] Benzylamine hydrochloride (CFA589, GE Healthcare). The plate was incubated for 1 hour as above after which the reaction was stopped by acidification (10 μL 1 M HCl). Then 90 μL Micro Scint-E solution (Perkin-Elmer) was added to each well and the plate was continuously mixed for 15 minutes. Phase separation occurred instantly and activity was read in a Topcount scintillation counter (Perkin-Elmer). In the final reaction well, the human recombinant SSAO concentration was 10 μg/ml. In order to optimize sensitivity, the substrate concentration was decreased as compared to the HRP coupled assay in order to get a higher fraction of radioactive product. In the human SSAO assay, benzylamine concentration was 40 μM (0.2 μCi/mL). Data was analysed as above.
As to `Cc1ccc(-n2nc(N3CCOC(CNCCN)C3)c3ccncc32)cc1` (stereo not shown) [Compound 33, (2-Aminoethyl)({4-[1-(4-methylphenyl)-1H-pyrazolo[3,4-c]pyridin-3-yl]morpholin-2-yl}methyl)amine trihydrochloride], the IC50 lay within 100 to 500 nM.
Regarding `CC(C)N1CCC(CNC(=O)N2CCC(c3cn(-c4ccc(Cl)cc4)c4cnccc34)CC2)CC1` [Compound 27, 4-[1-(4-Chlorophenyl)-1H-pyrrolo[2,3-c]pyridin-3-yl]-N-{[1-(propan-2-yl)piperidin-4-yl]methyl}piperidine-1-carboxamide; formic acid], the half-maximal inhibitory concentration (IC50) was below 100 nM.
Consider `CN1CCN(C(=O)N2CCC(c3cn(-c4ccc(Cl)cc4)c4cnccc34)CC2)CC1` [Compound 5, 1-({4-[1-(4-Chlorophenyl)-1H-pyrrolo[2,3-c]pyridin-3-yl]piperidin-1-yl}carbonyl)-4-methylpiperazine], for which the IC50 was below 100 nM.
For the compound `CN1CCN(CCNC(=O)N2CCC(c3cn(-c4ccc(Cl)cc4)c4cnccc34)CC2)CC1` [Compound 25, 4-[1-(4-Chlorophenyl)-1H-pyrrolo[2,3-c]pyridin-3-yl]-N-[2-(4-methylpiperazin-1-yl)ethyl] piperidine-1-carboxamide], the IC50 was below 100 nM.
The result for `CN1CCC(CCNC(=O)N2CCC(c3cn(-c4ccc(Cl)cc4)c4cnccc34)CC2)CC1` [Compound 24, 4-[1-(4-Chlorophenyl)-1H-pyrrolo[2,3-c]pyridin-3-yl]-N-[2-(1-methylpiperidin-4-yl)ethyl] piperidine-1-carboxamide] reads below 100 nM; that for `CN1CCN(CCNc2nn(-c3ccc(Cl)cc3)c3cnccc23)CC1` [Compound 46, 1-(4-Chlorophenyl)-N-[2-(4-methylpiperazin-1-yl)ethyl]-1H-pyrazolo[3,4-c]pyridin-3-amine], 100 to 500 nM.
The result for `O=C(NC1CCNCC1)N1CCC(c2cn(-c3ccc(Cl)cc3)c3cnccc23)CC1` [Compound 7, 4-[1-(4-Chlorophenyl)-1H-pyrrolo[2,3-c]pyridin-3-yl]-N-(piperidin-4-yl) piperidine-1-carboxamide] reads below 100 nM; that for `COCCN1CCC(CNC(=O)N2CCC(c3cn(-c4ccc(Cl)cc4)c4cnccc34)CC2)CC1` [Compound 28, 4-[1-(4-Chlorophenyl)-1H-pyrrolo[2,3-c]pyridin-3-yl]-N-{[1-(2-methoxyethyl)piperidin-4-yl]methyl}piperidine-1-carboxamide; formic acid], below 100 nM.
The result for `O=C(NCc1nn[nH]n1)N1CCC(c2cn(-c3ccc(Cl)cc3)c3cnccc23)CC1` [Compound 61, 4-[1-(4-Chlorophenyl)-1H-pyrrolo[2,3-c]pyridin-3-yl]-N-(2H-1,2,3,4-tetrazol-5-ylmethyl)piperidine-1-carboxamide; trifluoroacetic acid] reads below 100 nM; that for `Cc1ccc(-n2nc(N3CCOC(COCCN)C3)c3ccncc32)cc1` (stereo not shown) [Compound 32, 2-({4-[1-(4-Methylphenyl)-1H-pyrazolo[3,4-c]pyridin-3-yl]morpholin-2-yl}methoxy)ethan-1-amine], 100 to 500 nM.
Regarding `CCN1CCC(CNC(=O)N2CCC(c3cn(-c4ccc(Cl)cc4)c4cnccc34)CC2)CC1` [Compound 12, 4-[1-(4-Chlorophenyl)-1H-pyrrolo[2,3-c]pyridin-3-yl]-N-[(1-ethylpiperidin-4-yl)methyl] piperidine-1-carboxamide], the IC50 was below 100 nM.
Turning to `NC(=O)CN1CCC(CNC(=O)N2CCC(c3cn(-c4ccc(Cl)cc4)c4cnccc34)CC2)CC1` [Compound 14, N-{[1-(Carbamoyl-methyl)piperidin-4-yl]methyl}-4-[1-(4-chlorophenyl)-1H-pyrrolo[2,3-c]pyridin-3-yl] piperidine-1-carboxamide; formic acid], the IC50 was below 100 nM.
`CN(C)[C@H]1CCN(C(=O)CC2COCCN2c2nn(-c3ccc(Cl)cc3)c3cnccc23)C1` (stereo partly drawn) [Compound 56, 2-{4-[1-(4-Chlorophenyl)-1H-pyrazolo[3,4-c]pyridin-3-yl]morpholin-3-yl}-1-[(3S)-3-(dimethylamino)pyrrolidin-1-yl] ethan-1-one]: the IC50 was below 100 nM.
The result for `CN1CCC(NC(=O)CC2COCCN2c2nn(-c3ccc(Cl)cc3)c3cnccc23)CC1` (stereo not shown) [Compound 57, 2-{4-[1-(4-Chlorophenyl)-1H-pyrazolo[3,4-c]pyridin-3-yl]morpholin-3-yl)-N-(1-methylpiperidin-4-yl)acetamide] reads 100 to 500 nM.
With `O=C(NCC1CCNCC1)C1CCN(c2nn(-c3ccc(Cl)cc3)c3cnccc23)CC1` [Compound 47, 1-[1-(4-Chlorophenyl)-1H-pyrazolo[3,4-c]pyridin-3-yl]-N-(piperidin-4-ylmethyl)piperidine-4-carboxamide dihydrochloride], the IC50 is 100 to 500 nM.
Consider `COC(=O)CC1COCCN1c1nn(-c2ccc(Cl)cc2)c2cnccc12` (stereo not shown) [Compound 40, Methyl 2-{4-[1-(4-chlorophenyl)-1H-pyrazolo[3,4-c]pyridin-3-yl]morpholin-3-yl}acetate], for which the IC50 is below 100 nM.
With `CN1CCN(C(=O)CC2COCCN2c2nn(-c3ccc(Cl)cc3)c3cnccc23)CC1` (stereo not shown) [Compound 55, 2-{4-[1-(4-Chlorophenyl)-1H-pyrazolo[3,4-c]pyridin-3-yl]morpholin-3-yl}-1-(4-methylpiperazin-1-yl)ethan-1-one], the half-inhibitory concentration (IC50) is below 100 nM.
Take `CN1CCC(CNC(=O)C2CCCCN2c2nn(-c3ccc(Cl)cc3)c3cnccc23)CC1` (stereo not shown) [Compound 43, 1-[1-(4-Chlorophenyl)-1H-pyrazolo[3,4-c]pyridin-3-yl]-N-[(1-methylpiperidin-4-yl)methyl]piperidine-2-carboxamide]: the IC50 lay within 100 to 500 nM.
For `O=C1NCCN1CCNc1nn(-c2ccc(Cl)cc2)c2cnccc12` [Compound 64, 1-(2-{[1-(4-Chlorophenyl)-1H-pyrazolo[3,4-c]pyridin-3-yl]amino}ethyl)imidazolidin-2-one], the IC50 is below 100 nM.
As to `COCCN1CCN(C(=O)N2CCC(c3cn(-c4ccc(Cl)cc4)c4cnccc34)CC2)CC1` [Compound 18, 1-({4-[1-(4-Chlorophenyl)-1H-pyrrolo[2,3-c]pyridin-3-yl]piperidin-1-yl}carbonyl)-4-(2-methoxyethyl) piperazine], the IC50 is below 100 nM.
In the case of `Cc1ccc(-n2nc(N3CCOC(CNC(=O)OC(C)C)C3)c3ccncc32)cc1` (stereo not shown) [Compound 30, Propan-2-yl N-({4-[1-(4-methylphenyl)-1H-pyrazolo[3,4-c]pyridin-3-yl]morpholin-2-yl}methyl)carbamate], the IC50 is below 100 nM.
For the compound `CC(=O)N1CCC(NC(=O)N2CCC(c3cn(-c4ccc(Cl)cc4)c4cnccc34)CC2)CC1` [Compound 10, N-(1-Acetylpiperidin-4-yl)-4-[1-(4-chlorophenyl)-1H-pyrrolo [2,3-c]pyridin-3-yl]piperidine-1-carboxamide], the IC50 is below 100 nM.
